Measurements published in patent US7074789B2, “Kinase inhibitors” (Amgen Inc., priority 1999, dated 2006).
pIC50: −log10 of the molar value.

What was measured:
Type in all cases: biochemical
Lck = biological target: T1, Lck (Homo sapiens, UniProt P06239); experiment: Kinase inhibition assay (33P transfer), Lck; conditions: Table 3, class symbols; read-out: Lck-1
T1 construct: Kinases are expressed as either kinase domains or full length constructs; made in house
Summary of the method: (§1)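 GST/His-tagged kinase (domain or full length; E. coli or baculovirus) + [33P]ATP on plates coated with poly(Glu,Tyr) 4:1 or poly(Arg,Ser) 3:1; incubate, wash 0.5% H3PO4, add scintillant, count.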

AKT = biological target: T2, AKT (Homo sapiens, UniProt Q9Y243); experiment: Kinase inhibition assay (33P transfer), AKT; conditions: Table 2, class symbols A-E; read-out: AKT3-1
T2 construct: Kinases are expressed as either kinase domains or full length constructs; made in house
T2 sequence (Q9Y243 whole entry, the tested form may be a part): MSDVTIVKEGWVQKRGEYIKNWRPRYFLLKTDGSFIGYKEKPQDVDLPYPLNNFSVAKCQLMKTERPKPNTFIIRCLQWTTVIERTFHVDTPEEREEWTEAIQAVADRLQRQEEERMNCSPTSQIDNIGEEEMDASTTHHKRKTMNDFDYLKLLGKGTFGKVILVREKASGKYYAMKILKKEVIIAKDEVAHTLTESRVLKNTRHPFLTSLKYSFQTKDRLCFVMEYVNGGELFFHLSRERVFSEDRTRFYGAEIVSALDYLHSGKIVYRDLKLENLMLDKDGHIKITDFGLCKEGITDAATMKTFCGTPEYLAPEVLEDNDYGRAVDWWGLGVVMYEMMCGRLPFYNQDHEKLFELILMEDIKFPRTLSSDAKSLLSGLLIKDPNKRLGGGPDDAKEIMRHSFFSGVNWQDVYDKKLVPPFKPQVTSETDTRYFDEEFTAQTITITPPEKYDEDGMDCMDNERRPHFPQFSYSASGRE
Summary of the method: as §1

Zap-70 = biological target: T3, Zap-70 (Homo sapiens, UniProt P43403); experiment: Kinase inhibition assay (33P transfer), Zap-70; conditions: Table 3, class symbols; read-out: Zap-1
T3 construct: Kinases are expressed as either kinase domains or full length constructs; made in house
T3 sequence (P43403 1-619): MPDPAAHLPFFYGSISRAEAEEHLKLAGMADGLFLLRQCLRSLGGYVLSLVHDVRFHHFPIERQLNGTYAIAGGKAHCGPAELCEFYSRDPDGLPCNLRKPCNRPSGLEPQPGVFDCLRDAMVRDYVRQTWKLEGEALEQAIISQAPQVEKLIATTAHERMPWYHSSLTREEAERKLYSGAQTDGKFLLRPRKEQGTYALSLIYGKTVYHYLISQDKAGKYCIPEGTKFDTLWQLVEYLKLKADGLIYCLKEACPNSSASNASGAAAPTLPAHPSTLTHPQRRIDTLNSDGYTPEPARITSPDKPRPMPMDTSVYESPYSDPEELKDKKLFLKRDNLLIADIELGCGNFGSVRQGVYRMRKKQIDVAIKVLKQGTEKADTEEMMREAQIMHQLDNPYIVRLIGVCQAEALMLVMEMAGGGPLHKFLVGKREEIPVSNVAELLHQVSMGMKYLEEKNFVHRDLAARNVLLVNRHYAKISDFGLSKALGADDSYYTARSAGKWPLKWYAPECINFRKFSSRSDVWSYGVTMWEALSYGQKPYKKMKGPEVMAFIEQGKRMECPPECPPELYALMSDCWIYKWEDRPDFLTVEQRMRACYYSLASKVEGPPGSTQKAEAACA
Summary of the method: as §1

PDGFRB = biological target: T4, PDGFRB (Homo sapiens, UniProt P09619); experiment: Kinase inhibition assay (33P transfer), PDGFRB; conditions: read-out: PDGFRB-1
T4 construct: Kinases are expressed as either kinase domains or full length constructs; made in house
T4 sequence (P09619 33-1106, species assumed): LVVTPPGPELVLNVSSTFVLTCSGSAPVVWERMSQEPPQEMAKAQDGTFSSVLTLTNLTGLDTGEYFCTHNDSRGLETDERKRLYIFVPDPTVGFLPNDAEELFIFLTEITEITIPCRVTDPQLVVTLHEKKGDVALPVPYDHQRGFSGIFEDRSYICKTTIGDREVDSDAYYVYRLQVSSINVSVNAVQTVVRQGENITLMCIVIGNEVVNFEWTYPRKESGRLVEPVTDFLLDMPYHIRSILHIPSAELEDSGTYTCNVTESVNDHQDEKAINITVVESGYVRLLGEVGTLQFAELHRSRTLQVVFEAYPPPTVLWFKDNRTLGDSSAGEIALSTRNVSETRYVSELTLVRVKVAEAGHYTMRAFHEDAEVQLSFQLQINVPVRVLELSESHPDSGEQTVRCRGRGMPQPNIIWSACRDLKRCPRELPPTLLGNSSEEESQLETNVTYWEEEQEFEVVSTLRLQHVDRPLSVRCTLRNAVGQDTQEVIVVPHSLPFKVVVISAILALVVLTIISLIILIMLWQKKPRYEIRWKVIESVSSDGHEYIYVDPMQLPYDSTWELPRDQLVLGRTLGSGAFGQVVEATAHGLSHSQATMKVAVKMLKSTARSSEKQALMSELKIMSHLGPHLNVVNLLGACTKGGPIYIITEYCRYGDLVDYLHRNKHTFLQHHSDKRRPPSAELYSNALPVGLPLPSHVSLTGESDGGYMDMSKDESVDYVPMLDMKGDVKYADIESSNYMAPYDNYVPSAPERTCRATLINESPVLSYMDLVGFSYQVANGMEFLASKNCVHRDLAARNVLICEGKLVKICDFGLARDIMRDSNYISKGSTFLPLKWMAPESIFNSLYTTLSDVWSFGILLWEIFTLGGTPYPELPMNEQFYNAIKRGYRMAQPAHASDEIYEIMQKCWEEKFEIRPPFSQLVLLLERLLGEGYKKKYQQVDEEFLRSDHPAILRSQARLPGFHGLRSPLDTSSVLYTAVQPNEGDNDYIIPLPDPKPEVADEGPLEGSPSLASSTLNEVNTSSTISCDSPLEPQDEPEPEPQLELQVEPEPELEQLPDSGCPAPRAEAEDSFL

EGFR = biological target: T5, EGFR (Homo sapiens, UniProt P00533); experiment: Kinase inhibition assay (33P transfer), EGFR; conditions: Table 2, class symbols A-E; read-out: EGFR-1
T5 construct: Kinases are expressed as either kinase domains or full length constructs; made in house
T5 sequence (P00533 25-1210, species assumed): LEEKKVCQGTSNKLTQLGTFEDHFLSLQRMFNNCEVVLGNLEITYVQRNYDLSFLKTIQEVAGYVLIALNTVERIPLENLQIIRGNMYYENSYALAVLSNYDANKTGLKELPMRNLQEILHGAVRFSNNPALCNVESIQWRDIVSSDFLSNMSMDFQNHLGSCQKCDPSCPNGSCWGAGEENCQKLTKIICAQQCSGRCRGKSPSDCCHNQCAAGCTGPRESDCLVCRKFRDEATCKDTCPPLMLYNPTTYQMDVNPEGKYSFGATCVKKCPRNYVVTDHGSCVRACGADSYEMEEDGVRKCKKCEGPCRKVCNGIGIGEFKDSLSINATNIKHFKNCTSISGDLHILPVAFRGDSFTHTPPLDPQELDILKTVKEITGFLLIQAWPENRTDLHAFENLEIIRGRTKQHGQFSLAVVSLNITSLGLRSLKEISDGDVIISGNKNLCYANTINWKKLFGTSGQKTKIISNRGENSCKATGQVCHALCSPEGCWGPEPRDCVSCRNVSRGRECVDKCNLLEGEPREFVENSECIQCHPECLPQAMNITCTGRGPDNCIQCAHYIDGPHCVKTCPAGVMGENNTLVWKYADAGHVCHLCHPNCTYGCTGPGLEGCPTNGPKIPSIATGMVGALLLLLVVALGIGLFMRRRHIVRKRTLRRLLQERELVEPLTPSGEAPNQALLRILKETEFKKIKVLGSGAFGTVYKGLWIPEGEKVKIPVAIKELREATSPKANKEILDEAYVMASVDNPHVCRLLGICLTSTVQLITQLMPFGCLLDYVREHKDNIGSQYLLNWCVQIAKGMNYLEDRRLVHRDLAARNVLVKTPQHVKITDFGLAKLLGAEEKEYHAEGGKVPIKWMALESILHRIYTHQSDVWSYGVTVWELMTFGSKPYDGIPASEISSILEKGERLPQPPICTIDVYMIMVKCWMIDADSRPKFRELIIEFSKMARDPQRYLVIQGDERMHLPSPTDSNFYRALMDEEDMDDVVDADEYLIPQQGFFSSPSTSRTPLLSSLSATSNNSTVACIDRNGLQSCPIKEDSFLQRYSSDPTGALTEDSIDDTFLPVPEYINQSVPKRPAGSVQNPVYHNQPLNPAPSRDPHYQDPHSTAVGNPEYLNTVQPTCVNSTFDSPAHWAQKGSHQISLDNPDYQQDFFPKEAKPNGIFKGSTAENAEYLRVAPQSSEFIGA
Summary of the method: (§2)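 Activity read as 33P incorporation from ATP into poly(Glu,Tyr) 4:1 or poly(Arg,Ser) 3:1 substrate bound to microtiter plates, measured by scintillation after acid washing. Enzymes were affinity-purified GST or polyHis fusions (kinase domain or full length) from E. coli or baculovirus; IC50 = 50% reduction in labelled phosphate.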

Itk = biological target: T6, Itk (Homo sapiens, UniProt Q08881); experiment: Kinase inhibition assay (33P transfer), Itk; conditions: Table 3, class symbols; read-out: Itk-1
T6 construct: Kinases are expressed as either kinase domains or full length constructs; made in house
T6 sequence (Q08881 1-620): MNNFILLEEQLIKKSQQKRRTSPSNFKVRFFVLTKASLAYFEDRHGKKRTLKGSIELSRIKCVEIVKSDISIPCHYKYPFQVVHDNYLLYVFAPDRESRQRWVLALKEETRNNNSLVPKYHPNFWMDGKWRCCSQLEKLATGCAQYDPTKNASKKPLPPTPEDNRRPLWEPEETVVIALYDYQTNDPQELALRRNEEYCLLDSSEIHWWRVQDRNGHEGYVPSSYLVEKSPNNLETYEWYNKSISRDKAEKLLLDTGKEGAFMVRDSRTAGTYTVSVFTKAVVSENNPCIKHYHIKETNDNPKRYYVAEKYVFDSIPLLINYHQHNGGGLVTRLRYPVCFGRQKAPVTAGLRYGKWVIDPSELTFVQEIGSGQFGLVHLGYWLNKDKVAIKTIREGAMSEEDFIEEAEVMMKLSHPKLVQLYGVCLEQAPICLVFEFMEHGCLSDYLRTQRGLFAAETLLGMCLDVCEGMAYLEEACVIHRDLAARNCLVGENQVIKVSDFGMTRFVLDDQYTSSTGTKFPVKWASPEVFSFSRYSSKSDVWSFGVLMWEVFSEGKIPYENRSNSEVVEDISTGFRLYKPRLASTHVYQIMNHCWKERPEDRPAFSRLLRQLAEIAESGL
Summary of the method: as §2

IGFR-1 = biological target: T7, IGFR-1 (Homo sapiens, UniProt P08069); experiment: Kinase inhibition assay (33P transfer), IGFR-1; conditions: Table 2, class symbols A-E
T7 construct: Kinases are expressed as either kinase domains or full length constructs; made in house

c-Met = biological target: T8, c-Met (Homo sapiens, UniProt P08581); experiment: Kinase inhibition assay (33P transfer), c-Met; conditions: Table 2, class symbols A-E; read-out: Met-1
T8 construct: Kinases are expressed as either kinase domains or full length constructs; made in house
Summary of the method: as §2

Kdr = biological target: T9, Kdr (Homo sapiens, UniProt P35968); experiment: Kinase inhibition assay (33P transfer), Kdr; conditions: Table 3, class symbols; read-out: KDR-1
T9 construct: Kinases are expressed as either kinase domains or full length constructs; made in house
T9 sequence (P35968 20-1356, species assumed): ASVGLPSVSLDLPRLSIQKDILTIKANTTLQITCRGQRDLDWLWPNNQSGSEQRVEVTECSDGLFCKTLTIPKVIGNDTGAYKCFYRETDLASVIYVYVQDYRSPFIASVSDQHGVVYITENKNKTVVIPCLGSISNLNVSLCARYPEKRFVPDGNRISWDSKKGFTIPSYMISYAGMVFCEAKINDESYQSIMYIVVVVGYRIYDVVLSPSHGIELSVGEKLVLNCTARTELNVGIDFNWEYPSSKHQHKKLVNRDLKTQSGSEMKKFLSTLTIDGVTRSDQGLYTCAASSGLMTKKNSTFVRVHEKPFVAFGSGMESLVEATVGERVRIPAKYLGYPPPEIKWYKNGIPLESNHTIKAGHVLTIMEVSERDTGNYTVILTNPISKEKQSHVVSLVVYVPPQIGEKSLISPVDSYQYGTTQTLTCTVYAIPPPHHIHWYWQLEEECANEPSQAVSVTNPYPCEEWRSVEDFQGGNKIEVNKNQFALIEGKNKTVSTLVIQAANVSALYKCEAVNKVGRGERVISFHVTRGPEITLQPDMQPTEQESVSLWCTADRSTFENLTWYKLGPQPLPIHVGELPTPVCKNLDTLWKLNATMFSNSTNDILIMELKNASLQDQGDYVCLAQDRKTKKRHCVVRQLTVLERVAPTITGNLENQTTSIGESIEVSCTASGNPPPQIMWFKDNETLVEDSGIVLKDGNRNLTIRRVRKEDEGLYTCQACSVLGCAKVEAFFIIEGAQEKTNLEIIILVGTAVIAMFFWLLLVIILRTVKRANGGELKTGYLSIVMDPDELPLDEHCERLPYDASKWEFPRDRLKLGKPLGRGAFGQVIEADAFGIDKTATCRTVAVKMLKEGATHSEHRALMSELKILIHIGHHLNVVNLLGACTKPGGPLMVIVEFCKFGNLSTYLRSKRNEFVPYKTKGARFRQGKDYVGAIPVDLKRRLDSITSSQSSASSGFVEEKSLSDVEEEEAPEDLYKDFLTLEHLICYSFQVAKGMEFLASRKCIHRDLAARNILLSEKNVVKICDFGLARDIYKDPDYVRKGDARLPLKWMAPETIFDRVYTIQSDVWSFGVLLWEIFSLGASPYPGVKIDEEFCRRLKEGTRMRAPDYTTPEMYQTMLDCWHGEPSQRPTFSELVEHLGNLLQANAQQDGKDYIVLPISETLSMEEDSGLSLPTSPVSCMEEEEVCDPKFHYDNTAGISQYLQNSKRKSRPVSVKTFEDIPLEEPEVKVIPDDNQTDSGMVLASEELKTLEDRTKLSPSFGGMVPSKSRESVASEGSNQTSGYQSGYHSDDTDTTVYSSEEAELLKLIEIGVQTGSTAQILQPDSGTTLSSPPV
Summary of the method: as §1

ErbB2 = biological target: T10, ErbB2 (Homo sapiens, UniProt P04626); experiment: Kinase inhibition assay (33P transfer), ErbB2; conditions: read-out: ErbB2-2
T10 construct: Kinases are expressed as either kinase domains or full length constructs; made in house
Summary of the method: as §2

T1 sequence (P06239 whole entry, species assumed, the tested form may be a part): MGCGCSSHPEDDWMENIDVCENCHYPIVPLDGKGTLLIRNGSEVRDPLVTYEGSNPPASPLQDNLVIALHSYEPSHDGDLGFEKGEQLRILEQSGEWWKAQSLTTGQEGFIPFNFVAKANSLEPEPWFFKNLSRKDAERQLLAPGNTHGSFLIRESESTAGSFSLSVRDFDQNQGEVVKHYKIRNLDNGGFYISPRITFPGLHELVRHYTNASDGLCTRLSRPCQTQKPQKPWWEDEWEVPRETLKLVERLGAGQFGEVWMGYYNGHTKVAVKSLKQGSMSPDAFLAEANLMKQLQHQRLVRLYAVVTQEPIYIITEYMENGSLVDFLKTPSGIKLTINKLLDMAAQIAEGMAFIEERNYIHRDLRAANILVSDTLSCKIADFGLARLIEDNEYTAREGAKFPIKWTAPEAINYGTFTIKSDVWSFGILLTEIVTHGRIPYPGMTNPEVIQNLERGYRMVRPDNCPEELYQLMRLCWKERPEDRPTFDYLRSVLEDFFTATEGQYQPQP

Row | SMILES | pIC50 (Lck) | pIC50 (AKT) | pIC50 (Zap-70) | pIC50 (PDGFRB) | pIC50 (EGFR) | pIC50 (Itk) | pIC50 (IGFR-1) | pIC50 (c-Met) | pIC50 (Kdr) | pIC50 (ErbB2)
1 | COc1ccc(Nc2ncnc(N(C)c3ccc(C)cc3)n2)cc1OC [Compound 799] | 5.17 to 5.94 | < 4.89 | < 4.89 | 5.17 to 5.94 | > 5.94 | < 4.89 | 5.17 to 5.94 | 5.17 to 5.94 | 5.17 to 5.94 | 5.17 to 5.94
2 | COc1ccc(Nc2ncnc(N(C)c3cccc(C)c3)n2)cc1OC [Compound 800] | 5.17 to 5.94 | < 4.89 | < 4.89 | < 4.89 | > 5.94 | < 4.89 | 4.89 to 5.00 | 5.17 to 5.94 | 5.17 to 5.94 | 5.17 to 5.94
3 | COc1ccc(Nc2ncnc(N(C)c3ccc(F)cc3F)n2)cc1OC [Compound 801] | 5.19 to 5.97 | < 4.92 | < 4.92 | 5.19 to 5.97 | > 5.97 | < 4.92 | < 4.92 | 5.19 to 5.97 | 5.03 to 5.19 | 4.92 to 5.03
4 | COc1ccc(Nc2ncnc(N(C)C3CCN(Cc4ccccc4)C3)n2)cc1OC (stereo not shown) [Compound 802] | < 4.97 | < 4.97 | < 4.97 | 5.24 to 6.02 | < 4.97 | < 4.97 | < 4.97 | < 4.97 | < 4.97 | < 4.97
5 | COc1ccc(Nc2ncnc(N(C)[C@H](C)c3ccccc3)n2)cc1OC [Compound 803] | 5.18 to 5.96 | < 4.91 | < 4.91 | < 4.91 | 5.18 to 5.96 | < 4.91 | < 4.91 | < 4.91 | < 4.91 | 5.02 to 5.18
6 | CN(c1cccc(Cl)c1)c1ncnc(Nc2cc(Cl)c(Cl)c(Cl)c2)n1 [Compound 804] | < 4.96 | < 4.96 | < 4.96 | 4.96 to 5.07 | < 4.96 | < 4.96 | < 4.96 | < 4.96 | < 4.96 | < 4.96
7 | COC(=O)c1ccc(-c2cc(Nc3ncnc(NCCc4c[nH]c5ccccc45)n3)[nH]n2)cc1 [Compound 806] | 5.28 to 6.06 | < 5.00 | < 5.00 | < 5.00 | 5.28 to 6.06 | 5.28 to 6.06 | 5.28 to 6.06 | 5.28 to 6.06 | 5.28 to 6.06 | 5.28 to 6.06
8 | COC(=O)c1ccc(-c2cc(Nc3ncnc(Nc4ccc(N5CCOCC5)cc4)n3)[nH]n2)cc1 [Compound 807] | < 5.02 | < 5.02 | < 5.02 | < 5.02 | 5.02 to 5.13 | 5.13 to 5.29 | 5.29 to 6.07 | > 6.07 | < 5.02 | 5.29 to 6.07
9 | COC(=O)c1ccc(-c2cc(Nc3ncnc(NCCN4CCOCC4)n3)[nH]n2)cc1 [Compound 808] | < 4.97 | < 4.97 | < 4.97 | 5.25 to 6.03 | 5.08 to 5.25 | < 4.97 | < 4.97 | < 4.97 | < 4.97 | < 4.97
10 | COCCNc1ncnc(Nc2cc(-c3ccc(C(=O)OC)cc3)n[nH]2)n1 [Compound 816] | < 4.91 | < 4.91 | < 4.91 | > 5.97 | < 4.91 | 5.02 to 5.19 | 4.91 to 5.02 | < 4.91 | < 4.91 | 5.02 to 5.19
11 | COC(=O)c1ccc(-c2cc(Nc3ncnc(NCCc4ccc(OC)cc4)n3)[nH]n2)cc1 [Compound 817] | < 5.00 | < 5.00 | < 5.00 | 5.27 to 6.05 | < 5.00 | < 5.00 | < 5.00 | < 5.00 | < 5.00 | 5.27 to 6.05

Second part, the compound after the results:

Row | pIC50 (Lck) | pIC50 (AKT) | pIC50 (Zap-70) | pIC50 (PDGFRB) | pIC50 (EGFR) | pIC50 (Itk) | pIC50 (IGFR-1) | pIC50 (c-Met) | pIC50 (Kdr) | pIC50 (ErbB2) | SMILES
12 | < 4.94 | < 4.94 | < 4.94 | < 4.94 | < 4.94 | 5.05 to 5.21 | 5.05 to 5.21 | 5.05 to 5.21 | < 4.94 | < 4.94 | COC(=O)c1ccc(-c2cc(Nc3ncnc(NCc4ccco4)n3)[nH]n2)cc1 [Compound 805]
13 | < 4.95 | 4.95 to 5.06 | < 4.95 | 4.95 to 5.06 | < 4.95 | 5.22 to 6.00 | 5.06 to 5.22 | 5.06 to 5.22 | < 4.95 | 4.95 to 5.06 | COC(=O)c1ccc(-c2cc(Nc3ncnc(NCc4cccnc4)n3)[nH]n2)cc1 [Compound 809]
14 | < 4.97 | < 4.97 | < 4.97 | < 4.97 | < 4.97 | < 4.97 | 4.97 to 5.08 | < 4.97 | < 4.97 | < 4.97 | COC(=O)c1ccc(-c2cc(Nc3ncnc(Nc4cc(F)cc(F)c4)n3)[nH]n2)cc1 [Compound 810]
15 | < 5.01 | < 5.01 | < 5.01 | < 5.01 | < 5.01 | < 5.01 | 5.12 to 5.28 | < 5.01 | < 5.01 | < 5.01 | COC(=O)c1ccc(-c2cc(Nc3ncnc(Nc4cc(Cl)cc(Cl)c4)n3)[nH]n2)cc1 [Compound 811]
16 | 5.25 to 6.03 | < 4.98 | < 4.98 | < 4.98 | < 4.98 | 4.98 to 5.09 | 5.25 to 6.03 | 5.25 to 6.03 | 4.98 to 5.09 | 5.09 to 5.25 | CCOc1cccc(Nc2ncnc(Nc3cc(-c4ccc(C(=O)OC)cc4)n[nH]3)n2)c1 [Compound 812]
17 | < 5.01 | < 5.01 | < 5.01 | 5.28 to 6.06 | < 5.01 | 5.28 to 6.06 | < 5.01 | < 5.01 | < 5.01 | < 5.01 | CCOC(=O)c1cccc(Nc2ncnc(Nc3cc(-c4ccc(C(=O)OC)cc4)n[nH]3)n2)c1 [Compound 813]
18 | < 4.97 | < 4.97 | < 4.97 | 5.24 to 6.02 | < 4.97 | < 4.97 | < 4.97 | < 4.97 | < 4.97 | < 4.97 | COC(=O)c1ccc(-c2cc(Nc3ncnc(NCc4ccccc4F)n3)[nH]n2)cc1 [Compound 814]
19 | < 4.98 | < 4.98 | < 4.98 | 5.25 to 6.03 | < 4.98 | < 4.98 | < 4.98 | < 4.98 | 4.98 to 5.09 | 5.25 to 6.03 | COC(=O)c1ccc(-c2cc(Nc3ncnc(NCc4ccccc4OC)n3)[nH]n2)cc1 [Compound 815]
